Data reported in patent US20100287625A1, “VEGF VARIANTS” (UNIVERSITE DE LIEGE, priority 2006, published 2010).

Assays:
VEGF111 mRNA [1] = assay: VEGF111 mRNA in blood cells treated ex vivo, RT-PCR; format: cell-based, human; conditions: blood cells of a healthy donor, 1 μM, 6 and 24 hours
Protocol: FIG. 8: VEGF111 is expressed in blood cells treated with camptothecin (1 μM) ex vivo. Double arrowhead: internal standard. Vertical arrow indicates amplification products of VEGF111.
Blood was collected from a healthy donor, and cells were collected by centrifugation. Red blood cells were lyzed and the remaining cells were treated or not with camptothecin (1 μM) for 6 and 24 hours. Untreated cells were also investigated directly after collection. Total VEGF mRNA was measured by RT-PCR as described.

VEGF111 mRNA [2] = assay: Induction of VEGF111 mRNA by genotoxic agents, RT-PCR; format: cell-based, human
Protocol: The indicated cells were treated with UV-B or camptothecin (30 mJ or 1 μM, respectively, except otherwise indicated) for 24 hours (except otherwise indicated) and VEGF and VEGF111 mRNA were measured by RT-PCR. (A) Polyacrylamide gel electrophoresis of RT-PCR products of VEGF (upper panel), VEGF111 (middle panel) and 28S rRNA (lower panel). Arrows in upper panel show the amplification product of VEGF111. The drawings on the right represent the exons (not to scale) in the corresponding VEGF isoforms. C: control cells; Cp: camptothecin treatment; M: 50 bp molecular weight marqueurs; R: cells rinsed with red phenol-free medium; UV: UV-B irradiation; -: non template control; arrowheads: RT-PCR products of synthetic RNA added to the test tubes to monitor reaction efficiency. (B to E) Dose-response analysis (B and D) and kinetic of induction (C and E) of VEGF111 mRNA level in MCF7 cells irradiated by UV-B (B and C) or treated with camptothecin (D and E). The expression of VEGF111 is expressed as the percentage of the signal corresponding to its mRNA taking the overall various VEGF isoforms mRNA, as measured in upper panel of (A) as 100%.
The RT-PCR amplifications were performed in an automated system (GeneAmp PCR System 2400 or 9600, Perkin Elmer, Norwalk, Conn.) using the GeneAmp Thermostable rTth Reverse Transcriptase RNA PCR kit (Perkin Elmer), 10 ng of total RNA and the different pairs of primers (5 pmole each, see Table 1). For amplification of VEGF isoforms mRNA and 28S rRNA, a known copy number of an internal standard RNA were included in each sample to monitor the efficiency of the reaction. The RT step (70° C., 15 min.) was followed by a 2 min. incubation at 95° C. for denaturation of RNA/DNA heteroduplexes, PCR amplification and final elongation for 2 min. at 72° C. The conditions for PCR amplification were 94° C. for 15 sec., 66° C. for 20 sec., 72° C. for 10 sec. for 28S rRNA and CD31 mRNA, or 94° C. for 20 sec, 66° C. for 30 sec. and 72° C. for one min for VEGF. RT-PCR products were resolved on 10% polyacrylamide gel and analysed using a Fluor-S MultiImager (BioRad) after staining with gelstar dye (FMC BioProducts, Rockland, Me.). Specific detection of VEGF111 isoform mRNA was performed as follow. mRNA was reverse transcribed using oligodT (Eurogentec, Seraing, Belgium) and Superscript II (Invitrogen) as described by the manufacturer. Reverse transcription (42° C., 50 min.) was followed by denaturation of the enzyme at 70° C. for 15 min. VEGF111 cDNA was amplified by PCR using 40 ng cDNA, the oligos P5 and P6 (Table 1) and Taq polymerase (Takara, Shiga, Japan). The conditions for PCR amplification were 94° C. for 15 sec., 70° C. for 20 sec.,72° C. for 10 sec.

CC[C@@]1(O)C(=O)OCc2c1cc1n(c2=O)Cc2cc3ccccc3nc2-1 [Camptothecin]
VEGF111 mRNA in blood cells (VEGF111 mRNA [1]): expressed
expression of VEGF111 (VEGF111 mRNA [2]; 1 μM, HaCat cells and MCF7 cells, by 24 hours, level similar to or higher than after UV-irradiation): induced
time after which VEGF111 induction reached a plateau (VEGF111 mRNA [2]; MCF7 cells, camptothecin): 24 h
time after which VEGF111 induction was already detected (VEGF111 mRNA [2]; MCF7 cells, camptothecin): 6 h
VEGF111 induction, dose-response (VEGF111 mRNA [2]; MCF7 cells, with the concentration of camptothecin): progressively increased
